Data on 4 molecules can be found in article PMC5238559, “Biomimetic synthesis and HPLC–ECD analysis of the isomers of dracocephins A and B” (Beilstein Journal of Organic Chemistry, 2016).

The nature of data set [1]: pKa determination by aqueous titrations. The format is physicochemical. As to conditions: aqueous solution, phenolic hydroxy group. The protocol:
(§1) n-octanol. From the n-octanol containing titrations the poKa (the apparent ionization constant in the presence of n-octanol) and then logP values were estimated and refined by a weighted non-linear least-squares procedure, where the aqueous pKa values (taken from aqueous titrations) were used as unrefined contributions. For each compound a minimum of three to six titrations at different phase volume ratios were measured, and the respective average logP values were calculated. logD values were also calculated by logP and pKa values using the Henderson– Hasselbalch equation. The relevant relationships between logP, pKa, and poKa, for mono- and multiprotic substances, including cases of ion-pair formation, have been described in detail earlier. […]

A short description of data set [2]: logP determination by titrations in the presence of n-octanol; logD calculated from logP and pKa. The format is physicochemical. As to conditions: n-octanol/water; for logP: lipophilicity of neutral species; for logD: calculated from logP and pKa by Henderson–Hasselbalch equation. As for the experimental part: as §1
The nature of data set [3]: Cytotoxicity on SH-SY5Y cells (MTT). The format is cell-based. As to conditions: human, undifferentiated SH-SY5Y neuroblastoma cells. As for the experimental part:
for 4 h. After the incubation, PAMPA sandwich plates are separated and compound concentrations in donor and acceptor solutions are determined by HPLC-DAD.
SH-SY5Y neuroblastoma was cultured in EMEM media supplemented with non-essential amino acids, 1 mM Na pyruvate and 10% inactivated fetal bovine serum, nystatin, 2 mM L-glutamine, 100 U penicillin and 0.1 mg streptomycin, purchased from Sigma. Cells were cultured at 37 °C and 5% CO2. […]
(§2) Cytotoxicity on SH-SY5Y cells: Cytotoxicity on SH-SY5Y cells was measured in an analogous manner as described in the literature. […]
(§3) were read after o/n incubation. Fifty percent inhibitory concentrations (IC50) were calculated using nonlinear regression curve fitting of log (inhibitor) versus normalized response and variable slope with a least squares (ordinary) fit of GraphPad Prism 5 software, for three independent samples.
Evaluation of compounds effect on rhodamine 123 accumulation: Rd123 concentration inside L5178PAR and L5178MDR cells was determined by flow cytometry.
Briefly, 2 × 10^6 cells/mL were treated with 2 and 20 μM of each compound and incubated for 10 min at rt. […] The fluorescence of the samples was measured by flow cytometry (Becton Dickinson FACScan, BD, U.S.). […]
Fluorescence activity ratio measures the capacity of inhibition (accumulation of Rd123) and it is equal to the ratio between the FL-1 values of the L5178MDR cells […]

The test system of a further data set is P-glycoprotein (P-gp). In words: Rhodamine 123 accumulation in P-gp transfected L5178MDR cells. The format is cell-based. As to conditions: 2 and 20 μM of compound. As for the experimental part:
In connection with the BBB penetration studies, 2a–d and 3a–d were tested for their potential towards CNS cytotoxic activity on undifferentiated SH-SY5Y neuroblastoma cells. […] On the other hand, the possibility for neuroprotective activity could not be tested with the applied experimental setup. As an additional bioassay on compounds 2a–d and 3a–d, their potential to interfere with the function of P-glycoprotein (P-gp) was tested. By transporting a wide variety of compounds from the CNS back into the blood stream, P-gp is an important element of the BBB [16]. […]
(§4) for 4 h. After the incubation, PAMPA sandwich plates are separated and compound concentrations in donor and acceptor solutions are determined by HPLC-DAD. […]
as §2, §3
Evaluation of compounds effect on rhodamine 123 accumulation: Rd123 concentration inside L5178PAR and L5178MDR cells was determined by flow cytometry. […]

Data set [4] can be described thus: DPPH radical scavenging test. As to conditions: microplate format. As for the experimental part:
Antioxidant activity: The radical scavenging capacity of dracocephins A and B were
tested in the microplate format of the 2,2-diphenyl-1-picrylhydrazyl (DPPH) assay.
Naringenin and quercetin were obtained from PhytoLab (Vestenbergsgreuth,
Germany), and used as controls. […]
In general terms: Loss of DPPH colour is used to gauge radical scavenging.

A further data set can be described thus: in vitro. The format is in vitro ADME. As to conditions: pig, PAMPA, pH 7.4. As for the experimental part: Physicochemical characterization of dracocephins A and B was also carried out. […] Similarly to this lipophilicity trend, the TPSA value of (±)-naringenin is lower than dracocephins A and B, however, there is no difference between the calculated TPSA values of 2a–d and 3a–d. […] Among these proton-dissociation constants, the lowest acidic pKa values are predominant in physiological environment, which is also indicated by the difference of log D values between pH 7.4 and pH 6.5. The blood–brain barrier (BBB) specific penetration of dracocephins isomers has also been studied by the PAMPA (parallel artificial membrane permeability assay)-BBB model system, which indicates passive diffusion of test compounds across the brain capillary endothelium. […]
n-octanol. […] For each compound a minimum of three to six titrations at different phase volume ratios were measured, and the respective average logP values were calculated. logD values were also calculated by logP and pKa values using the Henderson– Hasselbalch equation. […]
as §4, §2

Setting [5] is: first value in cell, read-out: pKa (first, lowest acidic).
Where [6] appears, read: second value in cell, read-out: pKa (second) (converted).
Where [7] appears, read: third value in cell, read-out: pKa (third) (converted).

Values after ≈ are worked out from the molar mass of the structure shown. Read-outs that look alike come from different tables or passages of the source.

As to `O=C1CCC(c2c(O)cc(O)c3c2OC(c2ccc(O)cc2)CC3=O)N1` (stereo not drawn) [3a–d, 8-(2”-pyrrolidinone-5”-yl)naringenin], the pKa (in general, the negative logarithm of the acid dissociation constant) was 6.54 in data set [1] (setting [5]), 9.54 in data set [1] (setting [6]) and 12 in data set [1] (setting [7]). In data set [2], the logP (usually a log measure of how a compound divides between an organic and an aqueous phase) was 2.39 ± 0.02. The logD in data set [2] (pH 6.5, read-out: log D6.5) was 2.12; in data set [2] (pH 7.4, read-out: log D7.4), 1.51. Besides, the concentration for half-maximal inhibition (IC50) – broadly, the midpoint of a concentration-inhibition curve – at 48 h in data set [3] was above 150 µM. Besides, the “P-gp inhibition (rhodamine 123 accumulation)” value in the data set on P-glycoprotein (P-gp) is on record as “none of the synthesized compounds inhibits this transporter”. The “IC50 DPPH radical scavenging” value in data set [4] is reported as above 200 µg/mL.
Regarding naringenin [(±)-1, reference compound], in data set [4], the “IC50 DPPH radical scavenging” value is recorded as above 200 µg/mL.
Turning to `O=C1CCC(c2c(O)cc3c(c2O)C(=O)CC(c2ccc(O)cc2)O3)N1` (stereo not drawn) [2a–d, 6-(2”-pyrrolidinone-5”-yl)naringenin], the pKa in data set [1] (setting [5]) is 6.69 ± 0.01; in data set [1] (setting [6]) it was 9.47; in data set [1] (setting [7]) it was 12.3. In data set [2], the logP was 2.52 ± 0.02. Further, the logD was 2.31 in data set [2] (pH 6.5, read-out: log D6.5) and 1.74 in data set [2] (pH 7.4, read-out: log D7.4). Moreover, in the data set “in vitro”, the Papp (in general, a coefficient for how fast a substance crosses the barrier) at 4 h, 100 µM is 1.1 ± 0.1 ×10⁻⁶ cm/s. The molecule further returned an IC50 at 48 h in data set [3] above 150 µM. Moreover, the “P-gp inhibition (rhodamine 123 accumulation)” value in the data set on P-glycoprotein (P-gp) was “none of the synthesized compounds inhibits this transporter”. For the same molecule, the “IC50 DPPH radical scavenging” value in data set [4] is recorded as above 200 µg/mL.
Consider `O=c1c(O)c(-c2ccc(O)c(O)c2)oc2cc(O)cc(O)c12` [quercetin, reference compound], for which the “IC50 DPPH radical scavenging” value in data set [4] is 9.4 ± 0.6 µg/mL (≈ 31.1 µM).
